# Results from article PMC5358388 (Proceedings of the National Academy of Sciences of the …, 2017).
# Where two headings read alike, the source gives them in different places.
# Legend:
# P. falciparum = experiment: Growth inhibition of P. falciparum lines by chloroquine; format: cell-based; settings: Plasmodium falciparum
# [1] = tested on: cytosolic labile heme in P. falciparum; format: cell-based, Plasmodium falciparum
SMILES,"IC50 (P. falciparum; read-out: chloroquine IC50 (95% CI), parasites expressing CH49Y)","IC50 (P. falciparum; read-out: chloroquine IC50 (95% CI), parental NF54attB line)","average Δ[heme], increase in labile heme concentration vs untreated control ([1]; 60 nM chloroquine, four independent experiments, P = 0.002)","lower bound on labile cytosolic heme level ([1]; 60 nM chloroquine, assuming no chloroquine in the cytosol)","upper bound on labile cytosolic heme level ([1]; 60 nM chloroquine, assuming ≥1:1 chloroquine:heme in the cytosol)","change in labile heme concentration, treated vs untreated parasites ([1]; pyrimethamine 125 and 500 nM, 32 h)"
CCN(CC)CCCC(C)Nc1ccnc2cc(Cl)ccc12 (stereo not drawn) [chloroquine],10.3 to 11.3 nM,8.2 to 9.7 nM,+0.86 µM,~2.8 µM,~7 µM,
CCc1nc(N)nc(N)c1-c1ccc(Cl)cc1 [pyrimethamine],,,,,,No increase in labile heme concentration
